The source of these data is patent US10501421B1, “Substituted benzimidazoles as modulators of Ras signaling” (VANDERBILT UNIVERSITY, priority 2017, dated 2019).

The target in experiment [1] is Ras GEF SOS (Son of Sevenless) (Homo sapiens, UniProt Q07889). As to the kind of experiment: SOS-mediated nucleotide exchange on Ras (BODIPY-GDP fluorescence). Type of experiment: biochemical. To be noted: SOS-mediated exchange of BODIPY-GDP for GTP on Ras. An outline of the steps: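 Exchange rates were taken from single-exponential fits of the fluorescence time course as BODIPY-GDP on Ras was replaced by GTP. Compound went in first, then GTP and SOS. Mean rates plotted against concentration gave EC50 by four-parameter dose-response fitting.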
Sequence of Ras GEF SOS (Son of Sevenless) (P01112 1-166 partner limits assumed, one chain of several): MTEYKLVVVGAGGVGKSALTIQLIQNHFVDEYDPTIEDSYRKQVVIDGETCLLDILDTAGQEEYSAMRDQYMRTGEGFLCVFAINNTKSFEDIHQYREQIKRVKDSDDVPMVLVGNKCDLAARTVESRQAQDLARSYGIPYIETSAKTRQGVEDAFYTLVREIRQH

Experiment [2] has as its system H727 lung cancer cell lines (G12V K-Ras mutation). Kind of experiment: Inhibition of cancer cell proliferation (CellTiter-Glo). Type of experiment: cell-based. To be noted: Homo sapiens, NCI-H727, 72 h, read-out: Cell proliferation activity (H727 cancer cell line proliferation IC50). The gist of the method:
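H727 cells (K-Ras G12V), 1000/well, plated overnight then exposed to a compound dose range for 3 days at 37 °C. Proliferation by CellTiter-Glo, normalized to DMSO; IC50 from four-parameter variable-slope fit.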
In general terms: Cellular ATP, detected with luciferase, serves as a proxy for viable cell number.

A further experiment concerns the target T1, Son of Sevenless (SOS) (Homo sapiens, UniProt Q07889).
T1 sequence (Q07889 564-1049 limits assumed): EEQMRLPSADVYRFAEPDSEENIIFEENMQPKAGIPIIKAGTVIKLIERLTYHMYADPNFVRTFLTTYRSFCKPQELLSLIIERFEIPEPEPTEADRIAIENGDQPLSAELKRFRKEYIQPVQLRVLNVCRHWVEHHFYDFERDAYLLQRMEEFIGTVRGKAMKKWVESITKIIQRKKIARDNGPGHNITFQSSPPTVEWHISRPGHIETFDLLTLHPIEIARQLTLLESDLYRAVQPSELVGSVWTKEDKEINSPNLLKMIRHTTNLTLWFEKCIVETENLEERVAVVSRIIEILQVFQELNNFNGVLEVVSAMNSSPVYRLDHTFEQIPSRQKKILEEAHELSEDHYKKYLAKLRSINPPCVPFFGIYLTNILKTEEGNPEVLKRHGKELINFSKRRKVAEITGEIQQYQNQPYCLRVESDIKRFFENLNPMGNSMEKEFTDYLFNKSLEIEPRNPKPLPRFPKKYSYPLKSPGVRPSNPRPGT
Kind of experiment: Binding to SOS, fluorescence polarization anisotropy (FPA) probe displacement. To be noted: displacement of FITC-conjugated probe (Example 285), affinity calculated from IC50. The gist of the method: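 Test compounds were titrated against SOS pre-bound to a fluorescein-labelled probe, with anisotropy plotted versus compound concentration. Binding affinities were derived from IC50 values obtained by four-parameter dose-response fitting.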

Setting [3] is: H727 cells, 3 days treatment, CellTiter-Glo.

Counter-ions that a name gives are not always drawn. Like-named read-outs stand apart in the source and are kept apart here.

In the case of `Cc1cc(OC2CCNC2)c2nc(N3CCNCC3)n(Cc3cc(C)c(F)c(C)c3)c2c1` (stereo not drawn) [Example 317, 1-(4-fluoro-3,5-dimethylbenzyl)-6-methyl-2-(piperazin-1-yl)-4-(pyrrolidin-3-yloxy)-1H-benzo[d]imidazole], the EC50 (commonly the concentration at which the effect is half-maximal) in experiment [1] was < 1 µM. Also, in experiment [2] (setting [3]), the IC50 was in the range of 5 to 20 µM. Besides, on Son of Sevenless (SOS), the Ki (as a rule, a measure of affinity in units of concentration, obtained from inhibition or displacement) was 0.5 to 1 µM.
As for `Cc1cc(-c2ccccc2Cl)c2nc(N3CCNCC3)n(Cc3cc(C)c(F)c(C)c3)c2c1` [Example 267, 4-(2-chlorophenyl)-1-[(4-fluoro-3,5-dimethylphenyl)methyl]-6-methyl-2-piperazin-1-ylbenzimidazole], the EC50 in experiment [1] was < 1 µM. The IC50 in experiment [2] (setting [3]) fell in the range of 1 to 5 µM. For the same compound, on Son of Sevenless (SOS), the Ki was < 0.5 µM.
Take `Cc1cc2c(nc(N3CCNCC3)n2Cc2ccc(F)c(Cl)c2)c(-c2ccc(CN)cc2)c1C` [Example 108, (4-(1-(3-chloro-4-fluorobenzyl)-5,6-dimethyl-2-(piperazin-1-yl)-1H-benzo[d]imidazol-4-yl)phenyl)methanamine trifluoroacetate]: in experiment [1], the EC50 is < 1 µM. Also, the IC50 in experiment [2] lay in the range of 1 to 5 µM. For the same compound, on Son of Sevenless (SOS), the Ki is 0.5 to 1 µM.
For the compound `CCc1cc(Cn2c(N3CCNCC3)nc3cc(C)c(C)cc32)ccc1F` [Example 50, 1-(3-ethyl-4-fluorobenzyl)-5,6-dimethyl-2-(piperazin-1-yl)-1H-benzo[d]imidazole trifluoroacetate], the EC50 in experiment [1] lay within 1 to 5 µM. The IC50 in experiment [2] lay within 1 to 5 µM. Moreover, on Son of Sevenless (SOS), the Ki was > 5 µM.
With `Cc1cc2c(nc(NCCN)n2Cc2ccc(F)c(Cl)c2)c(-c2ccccc2Cl)c1C` [Example 113, N^1-(1-(3-chloro-4-fluorobenzyl)-4-(2-chlorophenyl)-5,6-dimethyl-1H-benzo[d]imidazol-2-yl)ethane-1,2-diamine trifluoroacetate], the EC50 in experiment [1] fell in the range of 1 to 5 µM. In experiment [2], the IC50 lay within 1 to 5 µM. Besides, the Ki at Son of Sevenless (SOS) is < 0.5 µM.
